From patent US10597398B2, “Suppression and regeneration promoting effect of low molecular weight compound on cancer and fibrosis” (NATIONAL UNIVERSITY CORPORATION TOTTORI UNIVERSITY, priority 2015, dated 2020)

How the values were obtained:
Wnt/β-catenin signaling = test: Inhibitory effect on Wnt/β-catenin signaling in mesenchymal stem cells (E7-TCF4 luciferase); type: cell-based, human; settings: concentration equal to or lower than that of IC-2
Procedure: A pTCF4-CMVpro-GL4.20 plasmid vector, having 3 copies of TCF4 motifs (CCT TTG ATC) upstream of aCMV promoter in a multiple cloning site of pGL4.20 (Promega Corp., Fitchburg, Wis.), was linearized and stably transfected into UE7T-13 cells to prepare E7-TCF4 cells. Also, a pCMVpro-GL4.20 plasmid vector, having a CMV promoter in a multiple cloning site of pGL4.20, was linearized and stably transfected into UE7T-13 cells. The resulting stable cells (E7-CMV cells) were cultured, like UE7T-13 cells, in 10% FBS/DMEM containing 0.25 μg/mL puromycin.
UE7T-13 cells were used to measure Wnt/β-catenin signaling activity. The concentrations of the respective compounds were as described in FIG. 42. Each control sample used was 0.1% DMSO, a solvent for each compound.
First, 70 to 90% confluent E7-TCF4 cells and E7-CMV cells were harvested and seeded (n=3) at 1.6758×10^4 cells/well of a 24-well plate (9.0×10^3 cells/cm^2). One day after that, each compound was added to the cells and the mixture was cultured at 37° C. Day 4 after the compound addition, the culture medium was changed.
At day 1, 4, or 8 after the compound treatment, the culture medium was discarded, and 100 μL of room temperature 5×Passive Lysis Buffer (PLB), which had been diluted 5-fold with MilliQ water, was added to each well. Next, the plate was shaken at room temperature for 15 min and was then frozen at −30° C. overnight. A Luciferase Assay Substrate was diluted with 10 mL of room temperature Luciferase Assay Buffer II to prepare Luciferase Assay Reagent II (LARII). The frozen PLB lysate samples were thawed and permeabilized for 15 min. Then, 10 μL aliquots were added to wells of a 96-well white plate. While 50 μL aliquots of LARII were each added to each well, luminescence was quantified by using a 1420 multi-label counter ARVO MX to determine firefly luciferase activity.

mesenchymal stem cell = test: Hepatocyte differentiation-inducing effect, summary statements on Example 4 (readout not specified); type: cell-based, human; settings: low concentration
Description: Albumin, a hepatocyte marker, was used as an indicator, and RNA was collected from cells treated with each compound. Next, a hepatocyte differentiation-inducing effect was examined by real-time RT-PCR. The concentrations of the respective compounds were as described in FIG. 35. Each control sample used was 0.1% DMSO, a solvent for each compound.
By using urea synthesis, a hepatocyte function, as an indicator, a hepatocyte differentiation-inducing effect of each compound was investigated.
The cells treated with each compound were subjected to immunofluorescence analysis of albumin, a hepatocyte marker, to investigate a hepatocyte differentiation-inducing effect. The concentrations of the respective compounds were as described in FIG. 37. Each control sample used was 0.1% DMSO, a solvent for each compound.
By using glycogen synthesis, a hepatocyte function, as an indicator, a hepatocyte differentiation-inducing effect of each compound was investigated.

HuH-7 cells = test: Growth inhibitory effect on cancer cells (WST assay), Example 6.3; type: cell-based, human
Procedure: HuH-7 cells, a human liver cancer cell line, were cultured on 10-cm cell culture dishes (TPP Techno Plastic Products AG, Trasadingen, Switzerland) by using DMEM under conditions at 5% CO2, 37° C., and 100% humidity. When the cells were 70 to 90% confluent, 200 μL of 0.25% Trypsin/1 mM EDTA solution, which had been prepared by diluting the stock solution 10-fold with PBS (−), was added to detach the cells. Then, the cells were centrifuged at 1000 rpm for 3 min at room temperature. The cells recovered were subcultured at a 1:4 split ratio.
First, 70 to 90% confluent HuH-7 cells were harvested and seeded (n=3) at 1×10^4 cells/well of a 96-well plate (TPP). After 24 h, IC-2 was added to the cells and the mixture was cultured at 37° C. Each control sample (0 μM) used was 1% DMSO, a solvent for each compound. The concentrations of IC-2 used were 0, 1, 5, 10, 25, and 50 μM
Next, day 4 after the IC-2 treatment, 100 μL of DMEM-diluted 10% Cell Counting Kit-8 (DOJINDO LABORATORIES, Kumamoto) was added. The mixture was incubated at 37° C. for 60 min and its absorbance (at a measurement wavelength of 450 nm/control wavelength of 600 nm) was measured by using a Sunrise Rainbow RC (Tecan Group Ltd., Mannedorf, Switzerland). Absorbance for the cells alone was calculated by subtracting, from the reading obtained, absorbance for 10% Cell Counting Kit-8 alone. […]

CD44high DLD-1 cells = test: CD44high cells in DLD-1 cells (FCM analysis); type: cell-based, human; settings: 48 h, 50 μM IC-2, 0.5 or 5 μM 5-FU, compared with control
Procedure: In addition, DLD-1 cells were seeded at 1×10^6 cells/10-cm cell culture dish. After 24 h, the cells were treated with 0.5 or 5 μM of 5-FU or 50 μM of IC-2. At additional 48 h, the cells were harvested. As a primary antibody, used was a mouse anti-human CD44 antibody (Abcam Ltd., Cambridge, UK). Then, Alexa Fluor 488-labeled goat anti-mouse IgG (H+L) (Life Technologies Corp., Carlsbad, Calif.) was used. After that, a MoFlo XDP (Beckman Coulter Inc., Fullerton, Calif.) was used for analysis.

[1] = test system: DLD-1 cells (colon cancer cells); test: Growth of colon cancer cells (Cell Counting Kit-8); type: cell-based; settings: 10 or 50 μM, 48 h
Procedure: DLD-1 cells (colon cancer cells) were cultured on 10-cm cell culture dishes (TPP Techno Plastic Products AG, Trasadingen, Switzerland) by using DMEM under conditions at 5% CO2, 37° C., and 100% humidity. For passage, 70 to 90% confluent cells were washed with PBS(−), and 300 μL of 0.25% Trypsin/1 mM EDTA per 2 mL of PBS(−) was added thereto. The cells were incubated at 37° C. for 5 min and were then detached. After that, 5 mL of DMEM was used to collect the cells. The cells collected were centrifuged at 1000 rpm for 3 min to remove a supernatant. The cells were then suspended in DMEM and were split at a 1:4 ratio.
DLD-1 cells were seeded at 5×10^5 cells/well of a 96-well plate (TPP). After 24 h, the cells were treated with 0, 10, or 50 μM of IC-2. Next, 48 h after the treatment, 100 μL of 10% Cell Counting Kit-8 (DOJINDO LABORATORIES, Kumamoto) was added. The mixture was incubated at 37° C. and its absorbance (at a measurement wavelength of 450 nm/control wavelength of 600 nm) was measured by using a Sunrise Rainbow RC (Tecan Group Ltd., Mannedorf, Switzerland).

SMILES	inhibitory effect on Wnt/β-catenin signaling pathway in mesenchymal stem cells compared with IC-2 (Wnt/β-catenin signaling)	hepatocyte-inducing effect at low concentration (mesenchymal stem cell)	growth of HuH-7 cells (HuH-7 cells; day 4)	IC50 (HuH-7 cells; day 4, 0-50 μM, control 1% DMSO) [µM]	percentage of CD44high cells (CD44high DLD-1 cells)	growth inhibitory effect on colon cancer cells [1]
COc1ccc(COc2ccc(CNC(=O)N3CCC(=O)N4C(Cc5ccccc5)C(=O)N(Cc5cccc6ccccc56)CC34)cc2)cc1 (stereo not drawn) [IC-2-OPMB]	more potent inhibitory effect	exerted a hepatocyte-inducing effect	–	–	–	–
O=C1C(Cc2ccccc2)N2C(=O)CCN(C(=O)NCc3ccccc3)C2CN1Cc1cccc2ccccc12 (stereo not drawn) [IC-2]	–	–	inhibited the growth of HuH-7 cells	25.9	significantly reduced the percentage of CD44^high cells	elicited a growth inhibitory effect
